US20240409475A1, “INTERMEDIATE-RELEASE FERTILIZERS AND METHODS FOR MAKING SAME” (OSTARA NUTRIENT RECOVERY TECHNOLOGES INC., priority 2021, published 2024)

Test system: canola
Assay: canola germination as a function of phosphate application rate
Assay type: in vivo
Details: media containing increasing concentrations of phosphate application
Source text: FIG. 8 is a graph showing germination rate for canola as a function of phosphate applicant rate for various sources of phosphorus listed in Table 2.

Compound: N.N.O=P(O)(O)O [DAP, Di-Ammonium Phosphate]
- germination of canola seedlings: inhibited at even the lowest application rate

Compound: N.O=P(O)(O)O [MAP, Mono-Ammonium Phosphate]
- germination of canola seedlings: inhibited at even the lowest application rate
